“And” between values parts separate entries of the source, which are not always exact repeats. Equal entries are not always repeated. Where two headings read alike, the source gives them in different places. One block for each compound: values may come before it.
Experiments:
human NTSR2 = biological target: T1, human NTSR2 (Homo sapiens, UniProt O95665); assay: NTSR2 competition binding, membranes of transiently transfected HEK 293T cells, [3H]NT(8-13); conditions: human NTSR2, HEK 293T membranes, [3H]NT(8-13) 0.50 nM; mean ± SEM
T1 construct: host or cells: HEK 293T cells, transient transfection
T1 sequence (O95665 whole entry): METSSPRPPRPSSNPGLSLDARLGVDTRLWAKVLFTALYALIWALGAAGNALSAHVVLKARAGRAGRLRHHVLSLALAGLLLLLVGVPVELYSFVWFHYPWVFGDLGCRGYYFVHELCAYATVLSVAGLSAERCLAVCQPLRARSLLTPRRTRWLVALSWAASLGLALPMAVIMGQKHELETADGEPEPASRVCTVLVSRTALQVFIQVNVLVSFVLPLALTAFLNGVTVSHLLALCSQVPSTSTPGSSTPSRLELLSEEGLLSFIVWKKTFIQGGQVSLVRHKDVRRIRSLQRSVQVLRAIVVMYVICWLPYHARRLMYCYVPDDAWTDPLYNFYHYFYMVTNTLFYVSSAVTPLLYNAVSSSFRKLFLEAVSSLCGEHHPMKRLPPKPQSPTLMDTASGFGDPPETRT
Method: (§1) Radioligand binding experiments with the NTSR1 and NTSR2 receptor subtypes were performed as described previously. […] NTSR2 binding was measured using homogenates of membranes from HEK 293T cells, which were transiently transfected with DNA encoding the human NTSR2 (cDNA Resource Center, Bloomsberg, PA, USA) using the Mirus TransIT-293 transfection reagent (Peqlab, Erlangen, Germany). […] Nonspecific binding was determined in the presence of 10 μM NT(8-13), protein concentration was determined by the method of Lowry using bovine serum albumin as a standard. A data analysis of the radioligand displacement curves was accomplished by non-linear regression analysis using the algorithms in PRISM 9.0 (GraphPad Software, San Diego, CA, USA). EC50 values derived from the resulting dose response curves were transformed into the corresponding Ki values applying the equation of Cheng and Prusoff.

human NTSR1 = human NTSR1 (Homo sapiens, UniProt P30989); assay: NTSR1 competition binding, membranes of CHO cells stably expressing human NTSR1, [3H]neurotensin; conditions: [3H]neurotensin 0.50 nM, mean ± SEM ([natRe]2: ± SD, n = 2)
human NTSR1, sequence (P30989 whole entry): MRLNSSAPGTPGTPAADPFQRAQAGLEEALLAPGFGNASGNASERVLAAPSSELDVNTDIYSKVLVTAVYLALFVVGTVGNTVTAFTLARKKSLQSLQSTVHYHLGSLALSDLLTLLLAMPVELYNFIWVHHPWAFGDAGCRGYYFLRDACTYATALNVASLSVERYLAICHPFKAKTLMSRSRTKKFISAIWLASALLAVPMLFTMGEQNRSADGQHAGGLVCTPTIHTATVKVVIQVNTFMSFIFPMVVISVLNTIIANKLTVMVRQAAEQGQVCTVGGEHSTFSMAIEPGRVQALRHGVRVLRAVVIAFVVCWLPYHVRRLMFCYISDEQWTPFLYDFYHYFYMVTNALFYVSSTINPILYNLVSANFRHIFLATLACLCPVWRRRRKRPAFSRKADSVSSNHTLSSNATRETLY
Method: as §1

[1] = system: NTSR1-positive HT-29 cells; assay: Competitive cellular uptake assay; format: cell-based; conditions: Homo sapiens, 37 °C, 1 h
Method: For the determination of the IC50 values, 8–10 concentrations of FAUC468 were used. The HT-29 cells were seeded on the day of the experiment in a 96-well-plate (~500.000 cells per well in 200 µL cell medium) and were incubated in a humidified atmosphere at 37 °C containing 5% CO2. Subsequently, the 96-well-plate was centrifuged at 850 rpm for 2 min following aspiration of the cell medium. The cells were washed with cell medium (200 µL), the plate was centrifuged at 850 rpm for 2 min, and the supernatant was aspirated. The incubation solutions (0.009–900 nM FAUC468 in 90 µL cell medium per well) and the respective radiotracer (10 µL, 100 kBq per well) were given to the wells, and the plates were incubated at 37 °C for 1 h. After the incubation time, the plate was centrifuged at 850 rpm for 2 min. The supernatant was removed, followed by two washing steps with the cell medium (200 µL) and PBS (200 µL). Sodium hydroxide solution (200 µL, 2 M, 37 °C) was added, and after 7 min, solutions of the cell homogenates were transferred into tubes, which were measured for radioactivity in a γ-counter (Wallac Wizard, Perkin Elmer, Waltham, MA, USA). […]

HT-29 cells = conditions: cited from earlier work
NTSR2 = biological target: NTSR2; set-up: method as in PMID 33268796; conditions: cited from earlier work
NTSR1 = biological target: NTSR1; set-up: method as in PMID 33268796; conditions: cited from earlier work

Compound: COc1cccc(OC)c1-c1cc(C(=O)NC2(C(=O)O)C3CC4CC(C3)CC2C4)nn1-c1ccnc2cc(Cl)ccc12 (centres unmarked) [SR 48692]
IC50 (HT-29 cells; [125I-Tyr3]NT(8-13) as radioligand): 30 nM

Compound: COc1cccc(OC)c1-c1cc(C(=O)NC2(C(=O)O)C3CC4CC(C3)CC2C4)nn1-c1ccc(C(=O)N(C)CCCN(C)C)cc1C(C)C (centres unmarked) [SR 142948A]
IC50 (HT-29 cells): 0.32 nM

Compound: NTS: 13-amino-acid peptide originally isolated from bovine hypothalami
Ki (NTSR2): 5 to 7 nM
Ki (NTSR1): 0.15 to 0.5 nM

The next lines start with the values.

Ki (human NTSR2): 270 ± 94 nM
Compound: COc1cccc(OC)c1-c1cc(C(=O)NC2(C(=O)O)C3CC4CC(C3)CC2C4)nn1-c1ccc(-c2cn(CCCN(C)CCCNC(=O)c3ccc(NN)nc3)nn2)cc1C(C)C (centres unmarked) [Compound 5, 2-(5-(2,6-Dimethoxyphenyl)-1-(4-(1-(3-((3-(6-hydrazineylnicotinamido)propyl)-(methyl)amino)propyl)-1H-1,2,3-triazol-4-yl)-2-isopropylphenyl)-1H-pyrazole-3-carboxamido)-adamantane-2-carboxylic Acid]

Ki (human NTSR1): 0.3 nM and 0.32 nM
Ki (human NTSR2): 85 ± 13 nM
Compound: COc1cccc(OC)c1-c1cc(C(=O)NC2(C(=O)O)C3CC4CC(C3)CC2C4)nn1-c1ccc(-c2cn(CCCN(C)CCCNC(=O)CCn3cc(CC(N)C(=O)O)nn3)nn2)cc1C(C)C (centres unmarked) [Compound 6, 2-(1-(4-(1-(3-((3-(3-(4-(2-Amino-2-carboxyethyl)-1H-1,2,3-triazol-1-yl)-propanamido)propyl)(methyl)amino)propyl)-1H-1,2,3-triazol-4-yl)-2-isopropylphenyl)-5-(2,6-dimethoxyphenyl)-1H-pyrazole-3-carboxamido)adamantane-2-carboxylic Acid]

IC50 ([1]; radiotracer [99mTc]1, read-out: IC50 of FAUC468 for the displacement of [99mTc]1): 1.93 nM
IC50 ([1]; radiotracer [99mTc]2, read-out: IC50 of FAUC468 for the displacement of [99mTc]2): 3.12 nM
Ki (human NTSR1): 1.9 ± 0.7 nM
Ki (human NTSR2): 100 ± 3 nM
Compound: COc1cccc(OC)c1-c1cc(C(=O)NC2(C(=O)O)C3CC4CC(C3)CC2C4)nn1-c1ccc(-c2cn(CCCN(C)CCCNC(=O)CN3CCN(CC(=O)O)CCN(CC(=O)O)CCN(CC(=O)O)CC3)nn2)cc1C(C)C (centres unmarked) [FAUC468]

Reference: paper PMC12196348, “^99mTc-Labeled Diarylpyrazoles for Single-Emission Computer Tomography Imaging of Neurotensin Receptor-Positive Tumors: A Comparative Preclinical Study” (Pharmaceutics, 2025)
